Assays:
[1] = system: breast line MDA468; test: In vitro cell culture growth assay (MTS), MDA468; type: cell-based, human; details: MDA468 cells, three days after drug treatment
Experimental: Human tumor cell lines used include prostate lines LNCap and PC3MM2, breast lines MDA468, MCF7, renal line HTB44 (A498), colon line HCT116, and ovarian line OVCAR3. Cells were plated in 96-well culture plates. One day following plating, the inhibitors were added to cells. Three days after drug treatment, viable cell densities were determined by metabolic conversion (by viable cells) of the dye MTS, a well established cell proliferation assay. The assays were performed using an assay kit purchased from Promega Corp. (Madison, Wis.) following the protocol supplied with the kit. The MTS assay results were read in a 96-well plate reader by measuring absorbance at 490 nm. The effect of each treatment was calculated as percent of control growth relative to the vehicle-treated cells grown in the same culture plate.

[2] = biological target: PI3K (Homo sapiens, UniProt P42336); test: Fluorescence polarization assay for PI3K; type: biochemical; details: PI3Kα; read-out: PI3Kα IC50;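 further: PI3K kinase reaction on PIP2 with ATP, 30-60 min, product sensed by GST-GRP with red probe in fluorescence polarization (mP), controls without enzyme and at zero time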
Sequence of PI3K (P42336 whole entry): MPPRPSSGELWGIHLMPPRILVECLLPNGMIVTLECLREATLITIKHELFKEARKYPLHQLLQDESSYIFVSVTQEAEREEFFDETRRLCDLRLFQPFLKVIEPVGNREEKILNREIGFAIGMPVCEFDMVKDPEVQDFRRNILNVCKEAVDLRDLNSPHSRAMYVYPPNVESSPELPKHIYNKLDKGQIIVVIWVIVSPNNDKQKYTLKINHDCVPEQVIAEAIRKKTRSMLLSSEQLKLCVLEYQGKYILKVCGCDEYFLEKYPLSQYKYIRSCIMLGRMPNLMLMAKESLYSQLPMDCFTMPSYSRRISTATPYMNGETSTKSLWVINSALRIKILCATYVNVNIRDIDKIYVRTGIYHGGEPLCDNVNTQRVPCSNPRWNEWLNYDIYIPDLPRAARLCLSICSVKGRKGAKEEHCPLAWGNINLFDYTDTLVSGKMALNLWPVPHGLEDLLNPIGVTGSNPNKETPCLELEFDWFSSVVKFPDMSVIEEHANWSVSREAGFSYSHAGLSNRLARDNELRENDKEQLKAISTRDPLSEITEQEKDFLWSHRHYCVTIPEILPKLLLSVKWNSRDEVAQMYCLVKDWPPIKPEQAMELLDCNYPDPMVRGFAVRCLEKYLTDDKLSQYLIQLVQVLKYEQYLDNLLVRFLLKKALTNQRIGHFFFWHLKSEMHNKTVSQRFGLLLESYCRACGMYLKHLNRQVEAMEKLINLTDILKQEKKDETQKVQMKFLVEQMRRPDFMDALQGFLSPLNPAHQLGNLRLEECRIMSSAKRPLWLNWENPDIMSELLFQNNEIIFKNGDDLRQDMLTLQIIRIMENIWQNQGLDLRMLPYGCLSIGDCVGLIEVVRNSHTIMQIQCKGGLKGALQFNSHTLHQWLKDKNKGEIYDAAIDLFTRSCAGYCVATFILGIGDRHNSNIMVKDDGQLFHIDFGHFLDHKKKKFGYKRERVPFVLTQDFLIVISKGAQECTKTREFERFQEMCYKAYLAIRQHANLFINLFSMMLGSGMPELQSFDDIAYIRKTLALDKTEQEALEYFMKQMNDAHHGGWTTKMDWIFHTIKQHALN
Sequence of PI3K (P27986 whole entry partner): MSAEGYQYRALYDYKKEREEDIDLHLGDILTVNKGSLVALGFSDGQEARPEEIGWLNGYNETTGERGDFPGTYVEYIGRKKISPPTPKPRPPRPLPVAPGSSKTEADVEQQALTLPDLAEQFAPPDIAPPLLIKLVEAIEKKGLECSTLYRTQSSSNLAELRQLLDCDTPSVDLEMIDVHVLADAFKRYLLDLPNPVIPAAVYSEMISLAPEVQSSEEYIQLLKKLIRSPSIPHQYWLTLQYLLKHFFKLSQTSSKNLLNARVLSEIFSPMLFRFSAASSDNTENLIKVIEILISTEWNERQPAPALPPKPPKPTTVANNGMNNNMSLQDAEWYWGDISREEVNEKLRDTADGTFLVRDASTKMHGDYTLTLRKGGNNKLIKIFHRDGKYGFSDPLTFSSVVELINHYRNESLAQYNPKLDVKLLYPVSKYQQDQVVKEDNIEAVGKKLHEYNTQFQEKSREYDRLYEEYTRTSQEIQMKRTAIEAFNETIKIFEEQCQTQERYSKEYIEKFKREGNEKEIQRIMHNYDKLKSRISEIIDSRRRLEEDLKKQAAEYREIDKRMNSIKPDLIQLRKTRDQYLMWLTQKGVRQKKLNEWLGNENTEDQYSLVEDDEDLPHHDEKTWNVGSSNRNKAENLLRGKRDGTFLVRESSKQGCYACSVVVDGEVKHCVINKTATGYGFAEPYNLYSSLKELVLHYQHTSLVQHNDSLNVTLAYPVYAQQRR

| SMILES | IC50 ([1]; Homo sapiens, 72 h) [µM] | other results |
| --- | --- | --- |
| CN(C)C(=O)Nc1ccc(-c2nc(N3CCOCC3)c3cnn(C4CCN(Cc5ccccc5)CC4)c3n2)cc1 [Compound 205] | 8 | – |
| CN(C)CCNC(=O)Nc1ccc(-c2nc(N3CCOCC3)c3cnn(C4CCN(Cc5ccccc5)CC4)c3n2)cc1 [Compound 268, 1-{4-[1-(1-benzylpiperidin-4-yl)-4-morpholin-4-yl-1H-pyrazolo[3,4-d]pyrimidin-6-yl]phenyl}-3-[2-(dimethylamino)ethyl]urea] | 0.6 | – |
| CN1CCC(NC(=O)Nc2ccc(-c3nc(N4CCOCC4)c4cnn(C5CCN(Cc6ccccc6)CC5)c4n3)cc2)CC1 [Compound 272] | 1.2 | – |
| CONC(=O)Nc1ccc(-c2nc(N3CCOCC3)c3cnn(C4CCN(Cc5ccccc5)CC4)c3n2)cc1 [Compound 286, 1-{4-[1-(1-benzylpiperidin-4-yl)-4-morpholin-4-yl-1H-pyrazolo[3,4-d]pyrimidin-6-yl]phenyl}-3-methoxyurea] | 0.2 | – |
| CN(C)NC(=O)Nc1ccc(-c2nc(N3CCOCC3)c3cnn(C4CCN(Cc5ccccc5)CC4)c3n2)cc1 [Compound 290, N-{4-[1-(1-benzylpiperidin-4-yl)-4-morpholin-4-yl-1H-pyrazolo[3,4-d]pyrimidin-6-yl]phenyl}-2,2-dimethylhydrazinecarboxamide] | 8 | – |
| CNC(=O)Cc1ccc(-c2nc(N3CCOCC3)c3cnn(C4CCN(Cc5ccccc5)CC4)c3n2)cc1 [Compound 371, 2-{4-[1-(1-benzylpiperidin-4-yl)-4-morpholin-4-yl-1H-pyrazolo[3,4-d]pyrimidin-6-yl]phenyl}-N-methylacetamide] | 10 | – |
| CCNC(=O)Nc1ccc(-c2nc(N3CCOCC3)c3cnn(C4CCN(Cc5ccccc5)CC4)c3n2)cc1 [Compound 499, 1-{4-[1-(1-benzylpiperidin-4-yl)-4-morpholin-4-yl-1H-pyrazolo[3,4-d]pyrimidin-6-yl]phenyl}-3-ethylurea] | 0.35 | – |
| O=C(Nc1ccccc1)Nc1ccc(-c2nc(N3CCOCC3)c3cnn(C4CCN(Cc5ccccc5)CC4)c3n2)cc1 [Compound 503, 1-{4-[1-(1-benzylpiperidin-4-yl)-4-morpholin-4-yl-1H-pyrazolo[3,4-d]pyrimidin-6-yl]phenyl}-3-phenylurea] | 1.05 | – |
| O=C(NCCO)Nc1ccc(-c2nc(N3CCOCC3)c3cnn(C4CCN(Cc5ccccc5)CC4)c3n2)cc1 [Compound 510, 1-{4-[1-(1-benzylpiperidin-4-yl)-4-morpholin-4-yl-1H-pyrazolo[3,4-d]pyrimidin-6-yl]phenyl}-3-(2-hydroxyethyl)urea] | 0.05 | – |
| CN(C)CCNC(=O)Nc1ccc(-c2nc(N3CCOCC3)c3cnn(C4CCN(Cc5ccccc5)CC4)c3n2)cc1 [Compound 513, 1-{4-[1-(1-benzylpiperidin-4-yl)-4-morpholin-4-yl-1H-pyrazolo[3,4-d]pyrimidin-6-yl]phenyl}-3-[2-(dimethylamino)ethyl]urea] | 0.6 | – |
| CN1CCC(NC(=O)Nc2ccc(-c3nc(N4CCOCC4)c4cnn(C5CCN(Cc6ccccc6)CC5)c4n3)cc2)CC1 [Compound 517, 1-{4-[1-(1-benzylpiperidin-4-yl)-4-morpholin-4-yl-1H-pyrazolo[3,4-d]pyrimidin-6-yl]phenyl}-3-(1-methylpiperidin-4-yl)urea] | 1.2 | – |
| CONC(=O)Nc1ccc(-c2nc(N3CCOCC3)c3cnn(C4CCN(Cc5ccccc5)CC4)c3n2)cc1 [Compound 532, 1-{4-[1-(1-benzylpiperidin-4-yl)-4-morpholin-4-yl-1H-pyrazolo[3,4-d]pyrimidin-6-yl]phenyl}-3-methoxyurea] | 0.16 | – |
| O=C(NCCF)Nc1ccc(-c2nc(N3CCOCC3)c3cnn(C4CCN(Cc5ccccc5)CC4)c3n2)cc1 [Compound 534, 1-{4-[1-(1-benzylpiperidin-4-yl)-4-morpholin-4-yl-1H-pyrazolo[3,4-d]pyrimidin-6-yl]phenyl}-3-(2-fluoroethyl)urea] | 0.0274 | – |
| CN(C)NC(=O)Nc1ccc(-c2nc(N3CCOCC3)c3cnn(C4CCN(Cc5ccccc5)CC4)c3n2)cc1 [Compound 536, N-{4-[1-(1-benzylpiperidin-4-yl)-4-morpholin-4-yl-1H-pyrazolo[3,4-d]pyrimidin-6-yl]phenyl}-2,2-dimethylhydrazinecarboxamide] | 8 | – |
| O=C(Nc1ccc(-c2nc(N3CCOCC3)c3cnn(C4CCN(Cc5ccccc5)CC4)c3n2)cc1)NC1CC1 [Compound 556, 1-{4-[1-(1-benzylpiperidin-4-yl)-4-morpholin-4-yl-1H-pyrazolo[3,4-d]pyrimidin-6-yl]phenyl}-3-cyclopropylurea] | 1.05 | – |
| O=C(Nc1ccc(-c2nc(N3CCOCC3)c3cnn(C4CCN(Cc5ccccc5)CC4)c3n2)cc1)Nc1ncc[nH]1 [Compound 570, 1-{4-[1-(1-benzylpiperidin-4-yl)-4-morpholin-4-yl-1H-pyrazolo[3,4-d]pyrimidin-6-yl]phenyl}-3-(1H-imidazol-2-yl)urea] | 3.5 | – |
| CNC(=O)Nc1ccc(-c2nc(N3CCOCC3)c3cnn(C4CCN(C(=O)OC(C)(C)C)CC4)c3n2)cc1 [Compound 582, tert-butyl 4-(6-{4-[(methylcarbamoyl)amino]phenyl}-4-morpholin-4-yl-1H-pyrazolo[3,4-d]pyrimidin-1-yl)piperidine-1-carboxylate] | – | IC50 [1]: 0.21 µM |
| CNC(=O)Nc1ccc(-c2nc(N3CCOCC3)c3cnn(C4CCN(C(=O)OC(C)(C)C)CC4)c3n2)cc1 [Compound 583, tert-butyl 4-(6-{4-[(methylcarbamoyl)amino]phenyl}-4-morpholin-4-yl-1H-pyrazolo[3,4-d]pyrimidin-1-yl)piperidine-1-carboxylate] | – | IC50 [1]: 0.45 µM |
| CNC(=O)Cc1ccc(-c2nc(N3CCOCC3)c3cnn(C4CCN(Cc5ccccc5)CC4)c3n2)cc1 [Compound 616, 2-{4-[1-(1-benzylpiperidin-4-yl)-4-morpholin-4-yl-1H-pyrazolo[3,4-d]pyrimidin-6-yl]phenyl}-N-methylacetamide] | 10 | – |
| CNC(=O)Nc1ccc(-c2nc(N3CCOCC3)c3cnn(C4CCN(C(=O)OC)CC4)c3n2)cc1 [Compound 720, methyl 4-(6-{4-[(methylcarbamoyl)amino]phenyl}-4-morpholin-4-yl-1H-pyrazolo[3,4-d]pyrimidin-1-yl)piperidine-1-carboxylate] | – | IC50 [1]: 0.095 µM |
| CNC(=O)Nc1ccc(-c2nc(N3CCOCC3)c3cnn(C4CCN(C(=O)OC)CC4)c3n2)cc1 [Compound 721, methyl 4-(6-{4-[(methylcarbamoyl)amino]phenyl}-4-morpholin-4-yl-1H-pyrazolo[3,4-d]pyrimidin-1-yl)piperidine-1-carboxylate] | 0.08 | – |
| COC(=O)N1CCC(n2ncc3c(N4CCOCC4)nc(-c4ccc(NC(=O)NCCF)cc4)nc32)CC1 [Compound 732, methyl 4-[6-(4-{[(2-fluoroethyl)carbamoyl]amino}phenyl)-4-morpholin-4-yl-1H-pyrazolo[3,4-d]pyrimidin-1-yl]piperidine-1-carboxylate] | 0.09 | – |
| COC(=O)N1CCC(n2ncc3c(N4CCOCC4)nc(-c4ccc(NC(=O)NC5CC5)cc4)nc32)CC1 [Compound 734, methyl 4-(6-{4-[(cyclopropylcarbamoyl)amino]phenyl}-4-morpholin-4-yl-1H-pyrazolo[3,4-d]pyrimidin-1-yl)piperidine-1-carboxylate] | 0.15 | – |
| COC(=O)N1CCC(n2ncc3c(N4CCOCC4)nc(-c4ccc(NC(=O)Nc5ccccc5)cc4)nc32)CC1 [Compound 735, methyl 4-(6-{4-[(anilinocarbonyl)amino]phenyl}-4-morpholin-4-yl-1H-pyrazolo[3,4-d]pyrimidin-1-yl)piperidine-1-carboxylate] | 0.08 | – |
| COC(=O)N1CCC(n2ncc3c(N4CCOCC4)nc(-c4ccc(N)cc4)nc32)CC1 [Compound 741, methyl 4-[6-(4-aminophenyl)-4-morpholin-4-yl-1H-pyrazolo[3,4-d]pyrimidin-1-yl]piperidine-1-carboxylate] | 12 | – |
| CNC(=O)Nc1ccc(-c2nc(N3CCOCC3)c3cnn(C4CCN(C(=O)OC(C)C)CC4)c3n2)cc1 [Compound 752, isopropyl 4-(6-{4-[(methylcarbamoyl)amino]phenyl}-4-morpholin-4-yl-1H-pyrazolo[3,4-d]pyrimidin-1-yl)piperidine-1-carboxylate] | 0.053 | – |
| CC(C)(C)OC(=O)N1CCC(n2ncc3c(N4CCOCC4)nc(-c4ccc(NC(=O)NCCF)cc4)nc32)CC1 [Compound 765, tert-butyl 4-[6-(4-{[(2-fluoroethyl)carbamoyl]amino}phenyl)-4-morpholin-4-yl-1H-pyrazolo[3,4-d]pyrimidin-1-yl]piperidine-1-carboxylate] | 0.36 | – |
| COC(=O)Nc1ccc(-c2nc(N3CCOCC3)c3cnn(C4CCN(C(=O)c5cnccc5C)CC4)c3n2)cc1 [Example 440, methyl [4-(1-{1-[(4-methylpyridin-3-yl)carbonyl]piperidin-4-yl}-4-morpholin-4-yl-1H-pyrazolo[3,4-d]pyrimidin-6-yl)phenyl]carbamate] | – | IC50 [2]: 2.5 µM |
| CNC(=O)Nc1ccc(-c2nc(N3CCOCC3)c3cnn(C4CCN(C(=O)c5cccnc5)CC4)c3n2)c(F)c1 [Example 461, 1-(3-fluoro-4-{4-morpholin-4-yl-1-[1-(pyridin-3-ylcarbonyl)piperidin-4-yl]-1H-pyrazolo[3,4-d]pyrimidin-6-yl}phenyl)-3-methylurea] | – | IC50 [2]: 0.887 µM |
| CNC(=O)Nc1cc(F)c(-c2nc(N3CCOCC3)c3cnn(C4CCN(C(=O)c5cccnc5)CC4)c3n2)cc1F [Example 465, 1-(2,5-difluoro-4-{4-morpholin-4-yl-1-[1-(pyridin-3-ylcarbonyl)piperidin-4-yl]-1H-pyrazolo[3,4-d]pyrimidin-6-yl}phenyl)-3-methylurea] | – | IC50 [2]: 1.54 µM |

From patent publication US20080234262A1 (Wyeth, priority 2007, published 2008)
